Test results from patent US6835728B2, “Drug combination for the treatment of depression and related disorders comprising mirtazapine” (Akzo Nobel N.V., priority 2001, dated 2004).
Marks after values point to notes of the source that are not given here.

Columns and labels:
Format in all cases: in vivo
mice = assay: Defensive (marble) burying test in mice; conditions: mouse, administered alone, S.C., pre-treatment 30 min
Description: Marble burying has been developed and validated as a pre-clinical assay of potential anxiolytic activity (Andrews and Broekkamp (1993). Procedures to identify anxiolytic or anxiogenic agents. In Behavioural Neuroscience, ed. A Sahgal, pp. 37-54. IRL Press, Oxford). The marble burying test places a naive mouse into a novel environment containing 25 marbles (arranged on top of a saw dust surface). A reduction in the number of marbles buried by the mouse has been hypothesised to be an anxiolytic-like/anti-depressant-like effect.
A further series of three separate experiments were conducted during which three single doses of mirtazapine (0.3, 1, 3 mg.kg^−1) were co-administered S.C. with a range of S.C. gepirone doses (0, 0.1, 0.3, 1, 3 mg.kg^−1).

Sprague-Dawley rats [1] = assay: EEG sleep-waking behaviour test in rats; conditions: rat, I.P., change over control
Protocol: The aim of this test was to characterise the effects on rat sleep-waking behaviour of gepirone alone and of gepirone after co-administration with mirtazapine. To this end additionally the effects of mirtazapine on it own were investigated. Sleep-waking behaviour was analysed by using electroencephalographic (EEG) recordings, electromyographic (EMG) recordings, and by recording a movement index. On the basis of these signals sleep-waking behaviour was automatically classified per 2 second periods into 6 classes: active waking, passive waking, light sleep, deep sleep, intermediate stage sleep and REM sleep (Ruigt et al. A large scale automated system for rat sleep staging. I. Methodology and technical aspects. Electroenceph. and Clin. Neurophysiol.; 1989; 73:52-64). Each experiment is performed simultaneously on 32 adult male Sprague-Dawley rats (Harlan Olac, Bicester, UK, weighing […]), subdivided into four treatment groups. Throughout the whole experiment the animals stay in recording cages and are only taken out to be injected with vehicle or test compound(s). Each experiment contains three sessions. The first session (“test session”), commencing at 10:00 AM with a variable duration of 2-5 hours, serves as adaptation period and is used to assess the quality of the EEG and EMG signals recorded. The second and third sessions both start at 2:30 PM on two consecutive days and have a duration of 15.5 hours each. At the start of the second session all groups receive a vehicle treatment, at the start of the third session all groups receive their test compound(s). One of the treatment groups usually receives the vehicle treatment in both sessions to serve as a baseline for the other groups in the experiment. Separate experiments were done in which different single I.P. administered doses of either gepirone (1.0, 3.0, 10.0 mg/kg), or mirtazapine (2.2, 4.6, 10 mg/kg), or mirtazapine (2.2 mg/kg) in combination with gepirone (1.0, 3.0, 10 mg/kg) were tested. Gepirone was dissolved in 0.9% NaCl m/v in water (saline); mirtazapine was dissolved in 5% m/v Mulgofen (EL 719, GAF) in saline (=0.9% m/v NaCl in water). The drug-induced changes in sleep waking behaviours after I.P. administration of mirtazapine, gepirone, and mirtazapine in combination with gepirone are presented in Tables II, III and IV. […]

Sprague-Dawley rats [2] = assay: Psychotropic drug class prediction by discriminant analysis of effects on rat sleep-waking behaviour; conditions: I.P.
Protocol: The effect profiles for these compounds at active doses were subjected to a discriminant analysis over these 6 psychoactive classes with placebo being added as an extra class. The resulting discriminant function was used to predict the pharmaco-therapeutic application area for gepirone alone and after co-administration with mirtazapine. Finally, the effect profiles of gepirone, mirtazapine, and the combination of gepirone and mirtazapine were calculated on the basis of vectors derived from the changes in sleep-wake organisation as shown in tables above. For each dose, the probability that the compound belongs to one of 7 defined classes was calculated.

[3] = gepir 1.0 mg/kg, 0 to 3 hours after drug injection
[4] = gepir 1.0 mg/kg, 3 to 6 hours after drug injection
[5] = gepir 1.0 mg/kg, 9 to 15 hours after drug injection
[6] = gepir 3.0 mg/kg, 0 to 3 hours after drug injection
[7] = gepir 3.0 mg/kg, 3 to 6 hours after drug injection
[8] = gepir 3.0 mg/kg, 9 to 15 hours after drug injection
[9] = gepir 10.0 mg/kg, 0 to 3 hours after drug injection
[10] = gepir 10.0 mg/kg, 3 to 6 hours after drug injection
[11] = gepir 10.0 mg/kg, 9 to 15 hours after drug injection
[12] = mirt 2.2 mg/kg, 0 to 3 hours after drug injection
[13] = mirt 2.2 mg/kg, 3 to 6 hours after drug injection
[14] = mirt 2.2 mg/kg, 9 to 15 hours after drug injection

## CC1(C)CC(=O)N(CCCCN2CCN(c3ncccn3)CC2)C(=O)C1 [Gepirone, gepirone]
mice
  ED50 marble burying: 2.16 mg/kg
Sprague-Dawley rats [1]; [3]
  Latency from time of injection to Deep sleep: 24%
  Latency from time of injection to REM sleep: 3%
  Median duration Active waking: −58* %
  Median duration Deep sleep: −2%
  Median duration Intermediate sleep: −11%
  Median duration Light sleep: 23%
  Median duration Passive waking: 13%
  Median duration REM sleep: 4%
Sprague-Dawley rats [1]; [4]
  Median duration Active waking: 6%
  Median duration Deep sleep: −5%
  Median duration Intermediate sleep: 32%
  Median duration Light sleep: 8%
  Median duration Passive waking: 5%
  Median duration REM sleep: 20%
Sprague-Dawley rats [1]; [5]
  Median duration Deep sleep: 2%
  Median duration Intermediate sleep: −2%
  Median duration Light sleep: 14%
  Median duration Passive waking: 38%
  Median duration REM sleep: −12%
Sprague-Dawley rats [1]; gepir 1.0 mg/kg
  Median duration Active waking: −16%
Sprague-Dawley rats [1]; [6]
  Latency from time of injection to Deep sleep: 24%
  Latency from time of injection to REM sleep: 360* %
  Median duration Active waking: −8%
  Median duration Deep sleep: −21%
  Median duration Intermediate sleep: −76%
  Median duration Light sleep: 8%
  Median duration Passive waking: 156* %
  Median duration REM sleep: −83* %
Sprague-Dawley rats [1]; [7]
  Median duration Active waking: 30%
  Median duration Deep sleep: −6%
  Median duration Intermediate sleep: 64* %
  Median duration Light sleep: −2%
  Median duration Passive waking: 13%
  Median duration REM sleep: −3%
Sprague-Dawley rats [1]; [8]
  Median duration Active waking: −37* %
  Median duration Deep sleep: −7%
  Median duration Intermediate sleep: 36%
  Median duration Light sleep: 67%
  Median duration Passive waking: 55%
  Median duration REM sleep: 40%
Sprague-Dawley rats [1]; [9]
  Latency from time of injection to Deep sleep: 268%
  Latency from time of injection to REM sleep: 673* %
  Median duration Active waking: 72%
  Median duration Deep sleep: −63* %
  Median duration Intermediate sleep: −100* %
  Median duration Light sleep: −2%
  Median duration Passive waking: 198%
  Median duration REM sleep: −100* %
Sprague-Dawley rats [1]; [10]
  Median duration Active waking: −18%
  Median duration Deep sleep: −19%
  Median duration Intermediate sleep: 56%
  Median duration Light sleep: 35%
  Median duration Passive waking: −40%
  Median duration REM sleep: −50* %
Sprague-Dawley rats [1]; [11]
  Median duration Active waking: −23* %
  Median duration Deep sleep: −5%
  Median duration Intermediate sleep: 108* %
  Median duration Light sleep: 23%
  Median duration Passive waking: 7%
  Median duration REM sleep: 64%
Sprague-Dawley rats [2]; gepirone 1.0 mg/kg
  Probability score AC (anticonvulsant): 7%
  Probability score AD (antidepressant): 1%
  Probability score APS (antipsychotic): 31%
  Probability score AXL (anxiolytic): 6%
  Probability score HYP (hypnotic): 20%
  Probability score PLAC (placebo): 35%
  Probability score STIM (stimulant): 0%
Sprague-Dawley rats [2]; gepirone 3.0 mg/kg
  Probability score AC (anticonvulsant): 29%
  Probability score AD (antidepressant): 28%
  Probability score APS (antipsychotic): 14%
  Probability score AXL (anxiolytic): 15%
  Probability score HYP (hypnotic): 9%
  Probability score PLAC (placebo): 6%
  Probability score STIM (stimulant): 0%
Sprague-Dawley rats [2]; gepirone 10.0 mg/kg
  Probability score AC (anticonvulsant): 6%
  Probability score AD (antidepressant): 16%
  Probability score APS (antipsychotic): 3%
  Probability score AXL (anxiolytic): 63%
  Probability score HYP (hypnotic): 0%
  Probability score PLAC (placebo): 0%
  Probability score STIM (stimulant): 12%

## CN1CCN2c3ncccc3Cc3ccccc3C2C1 (centres unmarked) [Mirtazapine, mirtazapine]
mice
  ED50 marble burying: 5.5 mg/kg
Sprague-Dawley rats [1]; [12]
  Latency from time of injection to Deep sleep: −36%
  Latency from time of injection to REM sleep: 27%
  Median duration Active waking: 19%
  Median duration Deep sleep: 13%
  Median duration Intermediate sleep: −85* %
  Median duration Light sleep: 7%
  Median duration Passive waking: −5%
  Median duration REM sleep: −88* %
Sprague-Dawley rats [1]; [13]
  Median duration Active waking: 68%
  Median duration Deep sleep: 19%
  Median duration Intermediate sleep: −74* %
  Median duration Light sleep: 10%
  Median duration Passive waking: 17%
  Median duration REM sleep: −52* %
Sprague-Dawley rats [1]; [14]
  Median duration Active waking: −16%
  Median duration Deep sleep: 20%
  Median duration Light sleep: 27%
  Median duration Passive waking: −8%
  Median duration REM sleep: 22%
Sprague-Dawley rats [1]; mirt 2.2 mg/kg
  Median duration Intermediate sleep: 111%
Sprague-Dawley rats [2]; mirtazapine 2.2 mg/kg
  Probability score AC (anticonvulsant): 9%
  Probability score AD (antidepressant): 22%
  Probability score APS (antipsychotic): 3%
  Probability score AXL (anxiolytic): 20%
  Probability score HYP (hypnotic): 29%
  Probability score PLAC (placebo): 16%
  Probability score STIM (stimulant): 0%
